Source: patent EP1149092B1, “4- AND 5-ALKYNYLOXINDOLES AND 4- AND 5-ALKENYLOXINDOLES” (F. HOFFMANN-LA ROCHE AG, priority 1998, dated 2000)

Tests used:
MMP-3 = experiment: MG-63 Cell-Based Assay, MMP-3 release after IL-1β stimulation (ELISA); details: Homo sapiens, MG63 cells, IL-1β stimulated, 24 hours with compound, read-out: IC50 (µM) in MG63 Cells MMP3
From the text: (§1) The MG63 cell line, a human osteosarcoma cell line, was purchased from American Type Culture Collection (ATCC; Rockville, MD) and grown in the medium recommended by ATCC. When stimulated with human IL-1β , MG63 cells release matrix metalloproteinase 3 (MMP-3), an AP-1 dependent inflammatory mediator and IL-6, a NF-κB-dependent mediator. In this assay the ability of a test compound to block MMP-3 expression and not block IL-6 expression is an indication that the compound is a selective inhibitor of the AP-1 transcription pathway.
(§2) On day 1 the cells were plated at 2.5X10^4 cells/well in 96 well plates. After 24 hours, dexamethasone (the assay control) (Sigma, St. Louis, MO) and the test compounds were diluted to appropriate concentrations and added to the MG63 cells. The cells were incubated with the compounds for 24 hours after which the supernatants were removed and analyzed by ELISA.
(§3) In the ELISA, 96 well plates were coated with antibody to MMP-3 or IL-6. Supernatants were added to the coated plates and any antigen (MMP-3 or IL-6) in the supernatant bound to the antibody coated on the plates. The plates were then washed with PBS containing 0.05% Tween 20 (Sigma, St. Louis, MO) and the biotinylated secondary antibody was added. This secondary antibody binds to the already bound antigen creating a "sandwich effect". Plates were washed as described above and horseradish peroxidase (HRP)-streptavidin conjugate (Sigma, St. Louis, MO) was added to the plates. HRP-streptavidin bound to the biotin-antibody conjugate. The plates were washed and TMB substrate (Kirkegaard and Perry Labs, Gaithersburg, MD) was added to the wells. This substrate changes color in the presence of HRP-streptavidin. The intensity of the color (measured at 450 nm) is proportional to the amount of MMP-3 or IL-6 produced by the MG63 cells upon exposure to IL-1β and the test compounds. Optical density values were converted to concentration (pg/ml or Units/ml) based on a standard curve included in the assay. IC50 values for each test compound were determined from the linear regression of a plot of the logarithm of the concentration of compound versus amount of MMP-3 or IL-6 secreted. (The MMP-3 antibodies were prepared in-house using standard hybridoma technology and the IL-6 antibodies were obtained from either Genzyme, Cambridge, MA or Pharmingen, San Diego, CA.).

IL-6 [1] = experiment: MG-63 Cell-Based Assay, IL-6 release after IL-1β stimulation (ELISA); details: Homo sapiens, MG63 cells, IL-1β stimulated, 24 hours with compound, read-out: IC50 (µM) in MG63 Cells IL6
From the text: as §1, §2, §3

IL-6 [2] = experiment: U937 Cell-Based Assay, IL-6 release after LPS stimulation (ELISA); details: Homo sapiens, U-937; U937 cells, PMA then LPS stimulated, 24 hours; read-out: IC50 (µM) in U937 Cells IL6
Method: (§4) The U937 cells, a human monocyte/macrophage cell line, was obtained from the ATTC and grown in the recommended medium. These cells when stimulated with lipopolysaccharide (LPS) release TNF, another inflammatory mediator implicated in the JNK pathway (Swantek et al., supra) and IL-6. In this assay the ability of a test compound to block TNF expression is evaluated.
(§5) The assay is very similar to the MG63 cell based assay except for the following modifications. The U937 cells were suspension cells but when stimulated with phorbol myristate acetate (PMA) (Sigma, St. Louis, MO) they become adherent. After PMA stimulation the cells were washed in cell culture medium and plated at 1X10^5 cells/well in 96 well plates. The following day the test compounds and dexamethasone control (Sigma, St. Louis, MO) were added to the cells for 1 hour of preincubation. Then the cells were stimulated with LPS (Sigma, St. Louis, MO). After an additional 24 hours of incubation the supematants were removed and assayed for TNF-α and IL-6 by ELISA. The IL-6 ELISA was run as described previously for the MG63 assay. The TNF ELISA was run using a kit supplied by Genzyme (Cambridge, MA).

rat SAPK (isoform β) = rat SAPK (isoform β) (Rattus norvegicus, UniProt P49187); experiment: SAPK FlashPlate Assay (inhibition of cJun phosphorylation); assay type: biochemical; details: GST-cJun substrate, 30 minutes at 37 °C
Method: "IC50" refers to the concentration of a particular 4- or 5-alkynyloxindole or 4-or 5-alkenyloxindole required to inhibit 50% of cJun phosphorylation, which is a measure of inhibition of SAPK activity. IC50 can be measured, inter alia, using the assay described herein in Example 102.
Human JNK is highly homologous to rat SAPK. To measure the inhibitory activity of test compounds, the compounds were tested in the rat SAPK assay.
For the SAPK assay, purified GST-cJun (a chimeric protein containing cJun, a natural substrate of JNK) was coated on 96 well FlashPlates (New England Nuclear, Boston, MA). Purified rat SAPK (isoform β, Kyriakis et al. supra) was preincubated with preparations containing MEKK-1 and MKK4 for 30 minutes at 37 °C in assay buffer containing 25 mM HEPES, pH 7.5, 150 mM NaCl, 20 mM MgCl2, 2 mM DTT, 0.001% Tween 20, 1 µM ATP freshly added. In the preincubation step, MEKK-1 phosphorylates and activates MKK-4, which in tum phosphorylates and activates SAPK. The activated SAPK was then added to the cJun coated FlashPlates along with ^33P-ATP (0.32 µCi per reaction) and test compounds. The plates were incubated for 30 minutes at 37 °C, then washed with PBS, 0.01% Tween 20, and counted in the Topcount scintillation counter (Packard Instrument Co., Downers Grove, IL). Dilutions of compounds were tested in duplicate in each assay. The percent inhibition of cJun phosphorylation (a measure of inhibition of SAPK activity) was determined by the following formula: [formula] where "test compound" refers to the average counts per minute of the test duplicates, "nonspecific" refers to the average counts per minute when no SAPK was added, and "total" refers to the average counts per minute when no compound was added.

TNF = experiment: U937 Cell-Based Assay, TNF release after LPS stimulation (ELISA); details: Homo sapiens, U-937; U937 cells, PMA then LPS stimulated, 24 hours
Method: as §4, §5

Chain of rat SAPK (isoform β) (P49187 whole entry, canonical isoform): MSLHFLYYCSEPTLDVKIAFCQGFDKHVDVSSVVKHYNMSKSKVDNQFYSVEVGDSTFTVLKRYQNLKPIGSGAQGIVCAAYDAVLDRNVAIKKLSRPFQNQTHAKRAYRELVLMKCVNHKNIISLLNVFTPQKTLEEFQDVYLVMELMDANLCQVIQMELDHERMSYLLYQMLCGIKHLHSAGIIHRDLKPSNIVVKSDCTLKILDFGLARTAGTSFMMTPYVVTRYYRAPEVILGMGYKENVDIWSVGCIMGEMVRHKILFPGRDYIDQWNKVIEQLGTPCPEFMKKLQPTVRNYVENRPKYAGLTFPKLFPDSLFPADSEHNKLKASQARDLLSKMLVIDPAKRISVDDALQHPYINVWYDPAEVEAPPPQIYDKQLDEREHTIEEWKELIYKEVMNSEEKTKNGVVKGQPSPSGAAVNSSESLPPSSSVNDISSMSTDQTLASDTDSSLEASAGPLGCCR

Row | IC50 (MMP-3) [µM] | IC50 (IL-6 [1]) [µM] | IC50 (IL-6 [2]) [µM] | IC50 (rat SAPK (isoform β)) [µM] | IC50 (TNF) [µM] | Compound
1 | < 12.5 | < 20 |  |  |  | C#CC(O)c1ccc[nH]1 (stereo not drawn) [CC, 3-Hydroxy-3-(1H-pyrrol-2-yl)-1-propyne]
2 | < 12.5 | < 20 | 20 | < 1 | < 8 | COc1cc[nH]c1/C=C1\C(=O)Nc2cccc(C#CC(O)c3ccc(N(C)C)cc3)c21 (racemic) [R, rac-(Z)-1,3-Dihydro-4-[3-(4-dimethylaminophenyl)-3-hydroxy-1-propynyl]-3-[(3-methoxy-1H-pyrrol-2-yl)methylene]-2H-indol-2-one]
3 | < 12.5 | < 20 |  | < 1 |  | COc1cc[nH]c1/C=C1\C(=O)Nc2cccc(C#CC(O)c3cccc(OC)c3OC)c21 (racemic) [EE, rac-(Z)-1,3-Dihydro-4-[3-(2,3-dimethoxyphenyl)-3-hydroxy-1-propynyl]-3-[(3-methoxy-1H-pyrrol-2-yl)methylene]-2H-indol-2-one]
4 | < 12.5 | < 20 | < 20 | < 1 | < 8 | COc1cc[nH]c1/C=C1\C(=O)Nc2cccc(C#CC(O)c3ccsc3)c21 (racemic) [BB, rac-(Z)-1,3-Dihydro-4-[3-hydroxy-3-(thiophen-3-yl)-1-propynyl]-3-[(3-methoxy-1H-pyrrol-2-yl)methylene]-2H-indol-2-one]
5 | < 12.5 | < 20 |  | < 1 |  | COc1cc[nH]c1/C=C1\C(=O)Nc2cccc(C#CCOc3ccccc3)c21 [Y, (Z)-1,3-Dihydro-3-[(3-methoxy-1H-pyrrol-2-yl)methylene]-4-(3-phenoxy-1-propynyl)-2H-indol-2-one]
6 | < 12.5 | 20 |  | < 1 |  | COc1cc[nH]c1/C=C1\C(=O)Nc2cccc(C#Cc3ccccc3)c21 [D, (Z)-1,3-Dihydro-4-(phenylethynyl)-3-[(3-methoxy-1H-pyrrol-2-yl)methylene]-2H-indol-2-one]
7 | < 12.5 | 20 |  | < 1 |  | COc1ccc(/C=C/c2cccc3c2/C(=C/c2[nH]ccc2OC)C(=O)N3)cc1OC [QQQ, 1,3-Dihydro-4-[(E)-2-(3,4-dimethoxyphenyl)-ethenyl]-(Z)-3-[(3-methoxy-1H-pyrrol-2-yl)methylene]-2H-indol-2-one]
8 | < 12.5 | < 20 |  | < 1 |  | COc1ccc(C(O)C#Cc2cccc3c2/C(=C/c2[nH]ccc2OC)C(=O)N3)cc1 (racemic) [H, rac-(Z)-1,3-Dihydro-4-[3-hydroxy-3-(4-methoxyphenyl)-1-propynyl]-3-[(3-methoxy-1H-pyrrol-2-yl)methylene]-2H-indol-2-one]
9 | < 12.5 | < 20 |  | < 1 |  | COc1ccc(C#Cc2cccc3c2/C(=C/c2[nH]ccc2OC)C(=O)N3)cc1 [G, (Z)-1,3-Dihydro-4-[(4-methoxyphenyl)ethynyl]-3-[(3-methoxy-1H-pyrrol-2-yl)methylene]-2H-indol-2-one]
10 | < 12.5 | < 20 |  | < 1 |  | COc1cc[nH]c1/C=C1\C(=O)Nc2cccc(C#CC(O)c3ccccc3)c21 (racemic) [FFF, rac-(Z)-1,3-Dihydro-4-(3-hydroxy-3-phenyl-1-propynyl)-3-[(3-methoxy-1H-pyrrol-2-yl)methylene]-2H-indol-2-one]
11 | < 12.5 | > 20 |  | < 1 |  | COc1cc[nH]c1/C=C1\C(=O)Nc2cccc(C#Cc3cccnc3)c21 [CCC, (Z)-1,3-Dihydro-3-[(3-methoxy-1H-pyrrol-2-yl)methylene]-4-[(3-pyridinyl)ethynyl]-2H-indol-2-one]
12 | < 12.5 | 20 |  |  |  | COc1cc[nH]c1/C=C1\C(=O)Nc2ccc(NC(=O)Cc3cccs3)c(C#Cc3cccnc3)c21 [III, (Z)-N-[2,3-Dihydro-3-[(3-methoxy-1H-pyrrol-2-yl)methylene]-2-oxo-4-[(3-pyridinyl)ethynyl]-1H-indol-5-yl]-2-thiopheneacetamide]
13 | < 12.5 | < 20 | < 20 |  | < 8 | COc1cc(C(O)C#Cc2cccc3c2/C(=C/c2[nH]ccc2OC)C(=O)N3)ccc1O (racemic) [O, rac-(Z)-1,3-Dihydro-4-[3-hydroxy-3-(4-hydroxy-3-methoxyphenyl)-1-propynyl]-3-[(3-methoxy-1H-pyrrol-2-yl)methylene]-2H-indol-2-one]
14 | < 12.5 | < 20 |  |  |  | C#CC(O)c1ccc(O)cc1 (stereo not drawn) [P, 3-Hydroxy-3-(4-hydroxyphenyl)-1-propyne]
15 | < 12.5 | < 20 | < 20 | < 1 | < 8 | COc1cc[nH]c1/C=C1\C(=O)Nc2cccc(C#CC(O)c3ccc4c(c3)OCO4)c21 (racemic) [N, rac-(Z)-4-[3-(1,3-benzodioxol-5-yl)-3-hydroxy-1-propynyl]-1,3-dihydro-3-[(3-methoxy-1H-pyrrol-2-yl)methylene]-2H-indol-2-one]
16 | < 12.5 | < 20 |  |  |  | C#CC(O)c1ccc(OC)c(O)c1 (stereo not drawn) [GG, 3-Hydroxy-3-(3-hydroxy-4-methoxyphenyl)-1-propyne]
